AC50 data for 32 compounds are collected here from patent US20250171438A1 (Agios Pharmaceuticals, Inc., priority 2022, published 2025).

The target of the experiment is T1, human PAH with the R408W mutation (Homo sapiens, UniProt P00439, R408W).
T1 construct: expressed in transfected cells
T1 sequence (P00439 1-452 R408W): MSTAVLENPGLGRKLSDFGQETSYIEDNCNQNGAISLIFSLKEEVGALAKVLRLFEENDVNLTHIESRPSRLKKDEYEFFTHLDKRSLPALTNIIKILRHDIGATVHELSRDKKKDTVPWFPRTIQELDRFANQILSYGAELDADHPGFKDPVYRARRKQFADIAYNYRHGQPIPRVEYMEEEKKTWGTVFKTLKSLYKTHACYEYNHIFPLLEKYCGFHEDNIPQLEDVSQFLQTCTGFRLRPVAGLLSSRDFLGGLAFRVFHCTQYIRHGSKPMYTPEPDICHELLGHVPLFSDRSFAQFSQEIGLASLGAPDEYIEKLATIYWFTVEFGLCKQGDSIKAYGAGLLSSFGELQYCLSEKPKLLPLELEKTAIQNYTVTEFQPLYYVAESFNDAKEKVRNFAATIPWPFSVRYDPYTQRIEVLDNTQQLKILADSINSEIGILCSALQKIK
The experiment in a line: Cell Based Phenylalanine Flux Assay. The conditions noted are these: A375 cells expressing human R408W PAH, 13C-Tyrosine by LC-MS, average where tested multiple times, read-out: AC50.

Molecules are shown by their SMILES. Read-outs that look alike come from different tables or passages of the source.

The AC50 is the concentration giving half of the maximal activity seen.

On to `CC(F)(F)c1ncc(C(=O)N2CCc3[nH]cnc3[C@@H]2c2nc3ccccc3s2)s1` [Example 1512, (R)-(4-(benzo[d]thiazol-2-yl)-6,7-dihydro-1H-imidazo[4,5-c]pyridin-5(4H)-yl)(2-(1,1-difluoroethyl)thiazol-5-yl)methanone], for which the concentration at half-maximal activity (AC50) (24 hrs compound incubation) fell in the range of 1000 to 5000 nM.

For `Cn1cc(-c2ncc(C(=O)N3CCc4[nH]cnc4[C@H]3c3nc4ccccc4s3)s2)c(C(F)(F)F)n1` [Example 1389], the AC50 (24 hrs compound incubation) was < 500 nM.

Regarding `O=C(Cc1coc(C(F)F)n1)N1CCc2[nH]cnc2C1c1nc2ccccc2s1` (centres unmarked), the half-maximal activity concentration (AC50) (24 hrs with compound) is > 5000 nM.

With `O=C(c1nnc(-c2ncccc2F)o1)N1CCc2[nH]cnc2[C@H]1c1nc2c(F)cccc2s1` [Example 1902, (S)-(4-(4-fluorobenzo[d]thiazol-2-yl)-6,7-dihydro-1H-imidazo[4,5-c]pyridin-5(4H)-yl)(5-(3-fluoropyridin-2-yl)-1,3,4-oxadiazol-2-yl)methanone], under “24 hrs compound incubation”, the half-maximal activity concentration (AC50) was < 500 nM.

Turning to `CCn1ncnc1C(=O)N1CCc2[nH]cnc2[C@@H]1c1nc2ccccc2s1` [Example 1957, (R)-(4-(benzo[d]thiazol-2-yl)-6,7-dihydro-1H-imidazo[4,5-c]pyridin-5(4H)-yl)(1-ethyl-1H-1,2,4-triazol-5-yl)methanone], the AC50 (24 hrs compound incubation) is < 500 nM.

For the compound `Cc1nc([C@H](C)O)oc1C(=O)N1CCc2[nH]cnc2[C@@H]1c1nc2c(F)cccc2s1` [Example 1912, ((R)-4-(4-fluorobenzo[d]thiazol-2-yl)-6,7-dihydro-1H-imidazo[4,5-c]pyridin-5(4H)-yl)(2-((S)-1-hydroxyethyl)-4-methyloxazol-5-yl)methanone], where the note is “24 hrs compound incubation”, the AC50 was > 5000 nM.

`CC(C)(O)c1nc(C(F)(F)F)c(C(=O)N2CC3(CC3)c3[nH]cnc3[C@H]2c2nc3ccccc3s2)o1` [Example 1679, (S)-(4′-(benzo[d]thiazol-2-yl)spiro[cyclopropane-1,7′-imidazo[4,5-c]pyridin]-5′(1′H,4′H,6′H)-yl)(2-(2-hydroxypropan-2-yl)-4-(trifluoromethyl)oxazol-5-yl)methanone]: for the setting “24 hrs compound incubation”, the half-maximal activity concentration (AC50) was 500 to 1000 nM.

Take `O=C(c1ccccc1)N1CCc2[nH]cnc2[C@H]1c1nc2ccccc2s1` [Example 1065]: the half-maximal activity concentration (AC50) (24 hrs compound incubation) is < 500 nM.

`Cc1nc(C2(O)CCC2)oc1C(=O)N1CCc2[nH]cnc2[C@@H]1c1nc2c(F)cccc2s1` [Example 1914, (R)-(4-(4-fluorobenzo[d]thiazol-2-yl)-6,7-dihydro-1H-imidazo[4,5-c]pyridin-5(4H)-yl)(2-(1-hydroxycyclobutyl)-4-methyloxazol-5-yl)methanone]: the AC50 (24 hrs compound incubation) was in the range of 1000 to 5000 nM.

As for `Cc1nc(C(=O)N2CCc3[nH]cnc3C2c2nc3ccccc3s2)no1` (centres unmarked), under “24 hrs with compound”, the half-maximal activity concentration (AC50) was > 5000 nM.

On to `Cn1nc(CC#N)nc1C(=O)N1CCc2[nH]cnc2C1c1nc2ccccc2s1` (centres unmarked), for which, where the note is “24 hrs with compound”, the AC50 was > 5000 nM.

Consider `CCn1cnnc1C(=O)N1CCc2[nH]cnc2[C@H]1c1nc2ccccc2s1` [Example 2078], for which the concentration at half-maximal activity (AC50) (24 hrs compound incubation) was < 500 nM.

`CC(C)(O)c1cccc2c(C(=O)N3CCc4[nH]cnc4[C@@H]3c3nc4ccccc4s3)cnn12` [Example 1482, (R)-(4-(benzo[d]thiazol-2-yl)-6,7-dihydro-1H-imidazo[4,5-c]pyridin-5(4H)-yl)(7-(2-hydroxypropan-2-yl)pyrazolo[1,5-a]pyridin-3-yl)methanone]: the AC50 (24 hrs compound incubation) is 1000 to 5000 nM.

In the case of `Cn1nc(C(N)=O)cc1C(=O)N1CCc2[nH]cnc2C1c1nc2c(F)cccc2s1` (centres unmarked), under “24 hrs with compound”, the AC50 lay within 1000 to 5000 nM.

As to `O=C(N1CCc2[nH]cnc2[C@H]1c1nc2ccccc2s1)C(F)(F)C1CC1` [Example 1253], the AC50 (24 hrs compound incubation) was 500 to 1000 nM.

Consider `COCCc1ncc(C(=O)N2CC(C)c3[nH]cnc3C2c2nc3ccccc3s2)o1` (centres unmarked), for which, where the note is “24 hrs with compound”, the AC50 lay in the range of 1000 to 5000 nM.

Turning to `Cc1nc(CCCN2CCOCC2)oc1C(=O)N1CCc2[nH]cnc2[C@H]1c1nc2ccccc2s1` [Example 1701], where the note is “24 hrs compound incubation”, the AC50 was < 500 nM.

On to `O=C(c1cnn2cc(F)ccc12)N1CCc2[nH]cnc2[C@@H]1c1nc2ccccc2s1` [Example 1040, (R)-(4-(benzo[d]thiazol-2-yl)-6,7-dihydro-1H-imidazo[4,5-c]pyridin-5(4H)-yl)(6-fluoropyrazolo[1,5-a]pyridin-3-yl)methanone], for which the AC50 (24 hrs compound incubation) was > 5000 nM.

Consider `O=C(c1oc(N2CCC(F)CC2)nc1C(F)F)N1CCc2[nH]cnc2[C@@H]1c1nc2ccccc2s1` [Example 1708, (R)-(4-(benzo[d]thiazol-2-yl)-6,7-dihydro-1H-imidazo[4,5-c]pyridin-5(4H)-yl)(4-(difluoromethyl)-2-(4-fluoropiperidin-1-yl)oxazol-5-yl)methanone], for which, where the note is “24 hrs compound incubation”, the AC50 was < 500 nM.

Take `O=C(c1nncs1)N1CCc2[nH]cnc2[C@H]1c1nc2ccccc2s1` [Example 1068]: the half-maximal activity concentration (AC50) (24 hrs compound incubation) was in the range of 500 to 1000 nM.

In the case of `Cc1nnc(C(=O)N2CCc3[nH]cnc3C2c2nc3cc(Br)ccc3[nH]2)s1` (centres unmarked), the AC50 (24 hrs with compound) is > 5000 nM.

In the case of `O=C(c1nccs1)N1CCc2[nH]cnc2C1c1nc2cc(F)ccc2s1` (centres unmarked), the AC50 (24 hrs with compound) is 1000 to 5000 nM.

Take `O=C(c1cnn2cc(Br)ccc12)N1CCc2[nH]cnc2[C@@H]1c1nc2c(F)cccc2s1` [Example 1236, (R)-(6-bromopyrazolo[1,5-a]pyridin-3-yl)(4-(4-fluorobenzo[d]thiazol-2-yl)-6,7-dihydro-1H-imidazo[4,5-c]pyridin-5(4H)-yl)methanone]: under “24 hrs compound incubation”, the concentration at half-maximal activity (AC50) was in the range of 1000 to 5000 nM.

With `C[C@H](O)c1nc(C(F)F)c(C(=O)N2CCc3[nH]cnc3[C@@H]2c2nc3c(C(F)(F)F)cccc3s2)o1` [Example 2114, (4-(difluoromethyl)-2-((S)-1-hydroxyethyl)oxazol-5-yl)((R)-4-(4-(trifluoromethyl)benzo[d]thiazol-2-yl)-6,7-dihydro-1H-imidazo[4,5-c]pyridin-5(4H)-yl)methanone], where the note is “24 hrs compound incubation”, the AC50 fell in the range of 500 to 1000 nM.

For the compound `Cc1nc(C(C)(C)O)oc1C(=O)N1CC(C)c2[nH]cnc2C1c1nc2c(F)cccc2s1` (centres unmarked), the concentration at half-maximal activity (AC50) (24 hrs with compound) is 1000 to 5000 nM.

`O=C(c1cnn2ccc(Br)cc12)N1CCc2[nH]cnc2[C@H]1c1nc2ccccc2s1` [Example 1047]: under “24 hrs compound incubation”, the AC50 is < 500 nM.

As for `Cn1nnc(C(=O)N2CCc3[nH]cnc3C2c2nc3ccccc3s2)n1` (centres unmarked), where the note is “24 hrs with compound”, the AC50 was 1000 to 5000 nM.

For `Cn1nc(C(F)F)cc1C(=O)N1CCc2[nH]cnc2[C@@H]1c1nc2ccccc2s1` [Example 1804, (R)-(4-(benzo[d]thiazol-2-yl)-6,7-dihydro-1H-imidazo[4,5-c]pyridin-5(4H)-yl)(3-(difluoromethyl)-1-methyl-1H-pyrazol-5-yl)methanone], for the setting “24 hrs compound incubation”, the half-maximal activity concentration (AC50) fell in the range of 1000 to 5000 nM.

As to `Cc1csc(CCC(=O)N2CCc3[nH]cnc3[C@H]2c2nc3ccccc3s2)n1` [Example 1079], for the setting “24 hrs compound incubation”, the AC50 lay in the range of 500 to 1000 nM.

In the case of `O=C(c1nnc(-c2cn[nH]c2)o1)N1CCc2[nH]cnc2[C@H]1c1nc2c(F)cccc2s1` [Example 1863], the AC50 (24 hrs compound incubation) was in the range of 500 to 1000 nM.

With `O=C(c1cnc(-c2ncccc2F)s1)N1CCc2[nH]cnc2[C@@H]1c1nc2ccccc2s1` [Example 1374, (R)-(4-(benzo[d]thiazol-2-yl)-6,7-dihydro-1H-imidazo[4,5-c]pyridin-5(4H)-yl)(2-(3-fluoropyridin-2-yl)thiazol-5-yl)methanone], the half-maximal activity concentration (AC50) (24 hrs compound incubation) fell in the range of 500 to 1000 nM.

As for `O=C(c1oc(-c2ccccn2)nc1C(F)(F)F)N1CC2(CC2)c2[nH]cnc2[C@H]1c1nc2ccccc2s1` [Example 1681, (S)-(4′-(benzo[d]thiazol-2-yl)spiro[cyclopropane-1,7′-imidazo[4,5-c]pyridin]-5′(1′H,4′H,6′H)-yl)(2-(pyridin-2-yl)-4-(trifluoromethyl)oxazol-5-yl)methanone], the half-maximal activity concentration (AC50) (24 hrs compound incubation) lay within 500 to 1000 nM.
